Patent publication US20110182982A1, “LIPOSOME TREATMENT OF VIRAL INFECTIONS” (University of Oxford, priority 2006, published 2011)

How the values were obtained:
Test in all cases: p24 secretion of HIV-1-infected PBMCs
Format in all cases: cell-based
Conditions in all cases: for % p24 secretion Week 1-rb / % p24 secretion Week 2-rb / % p24 secretion Week 3-rb / % p24 secretion Week 4-rb: treatment removed 2 weeks
HIV-1 isolate: UG92021 = test system: HIV-1 isolate: UG92021
Protocol: (§1) Clearance of HIV-1 primary isolates from infected human cells by NB-DNJ was assessed using phytohemagglutinin (PHA)-activated peripheral blood mononuclear cells (PBMCs) as indicator cells and the determination of p24 antigen production as the end point.
(§2) PBMCs from four normal (uninfected) donors were isolated, pooled, and stimulated with PHA (5 μg/ml) for 48 h followed by PHA plus interleukin-2 (40 U/ml) for 72 h in RPMI 1640 medium containing 10% heat-inactivated fetal bovine serum (FBS), 100 U of penicillin per ml, 100 μg of streptomycin per ml, and 2 mM L-glutamine. All experiments were performed in 96-well microtiter plates. To infect cells, 100 μl of PHA-activated PBMCs (5×10^5/ml) was added to each well, after which an equal volume containing 100 50% tissue culture infective doses (TCID50) of primary isolate stock was added. After an overnight incubation, the cells were washed three times with tissue culture medium, and finally re-suspended in medium containing the appropriate liposome treatment or free NB-DNJ. On day 7, approximately 10-30% of the culture volume containing secreted HIV-1 virions was used to infect naïve PBMCs for a second round of infection and treatment (volume transferred was calculated to be the volume necessary for the untreated control of that isolate to infect naïve cells at a TCID50=100). Rounds of treatment and infection of naïve cells were continued over four weeks, and at every time point cellular supernatant containing secreted virions was isolated and used in capture ELISAs to determine p24 concentration (measure of secretion). Additionally, supernatant isolated at each time point throughout treatment was used to infect naïve PBMCs (TCID50=100) for two weeks with no further treatment, which allowed for the observation of a rebound in viral activity.
(§3) PBMCs infected with 8 primary isolates (listed in Table 3) were incubated in the presence of free NB-DNJ (concentrations ranging 0-1 mM) or liposome-encapsulated NB-DNJ (0-3.75 μM, final lipid concentration of 50 μM).

HIV-1 isolate: HT92599 = test system: HIV-1 isolate: HT92599
Protocol: as §1, §2, §3

HIV-1 isolate: 97USNG30 = test system: HIV-1 isolate: 97USNG30
Protocol: as §1, §2, §3

HIV-1 isolate: 89.6 = test system: HIV-1 isolate: 89.6
Protocol: as §1, §2, §3

[1] = 1 mM free in medium, first week
[2] = Human immunodeficiency virus 1, PBMC, free, three rounds of treatment

## CCCCN1C[C@H](O)[C@@H](O)[C@H](O)[C@H]1CO [NB-DNJ, N-butyl-1,5-dideoxy-1,5-imino-D-glucitol]
HIV-1 isolate: UG92021; NB-DNJ 250 uM
  % p24 secretion Week 1: 90%
  % p24 secretion Week 2: 83%
  % p24 secretion Week 3: 88%
  % p24 secretion Week 4: 77%
  % p24 secretion Week 1-rb: 110%
  % p24 secretion Week 2-rb: 101%
  % p24 secretion Week 3-rb: 91%
  % p24 secretion Week 4-rb: 85%
HIV-1 isolate: UG92021; NB-DNJ 500 uM
  % p24 secretion Week 1: 85%
  % p24 secretion Week 2: 56%
  % p24 secretion Week 3: 23%
  % p24 secretion Week 4: 8%
  % p24 secretion Week 1-rb: 98%
  % p24 secretion Week 2-rb: 62%
  % p24 secretion Week 3-rb: 27%
  % p24 secretion Week 4-rb: 19%
HIV-1 isolate: UG92021; NB-DNJ 1000 uM
  % p24 secretion Week 1: 61%
  % p24 secretion Week 2: 21%
  % p24 secretion Week 3: 5%
  % p24 secretion Week 4: 0%
  % p24 secretion Week 1-rb: 72%
  % p24 secretion Week 2-rb: 19%
  % p24 secretion Week 3-rb: 3%
  % p24 secretion Week 4-rb: 0%
HIV-1 isolate: HT92599; [1]
  reduction in viral secretion: 50%
HIV-1 isolate: HT92599; NB-DNJ 250 uM
  % p24 secretion Week 1: 99%
  % p24 secretion Week 2: 84%
  % p24 secretion Week 3: 88%
  % p24 secretion Week 4: 81%
  % p24 secretion Week 1-rb: 93%
  % p24 secretion Week 2-rb: 99%
  % p24 secretion Week 3-rb: 95%
  % p24 secretion Week 4-rb: 88%
HIV-1 isolate: HT92599; NB-DNJ 500 uM
  % p24 secretion Week 1: 53%
  % p24 secretion Week 2: 19%
  % p24 secretion Week 3: 8%
  % p24 secretion Week 4: 1%
  % p24 secretion Week 1-rb: 67%
  % p24 secretion Week 2-rb: 27%
  % p24 secretion Week 3-rb: 17%
  % p24 secretion Week 4-rb: 1%
HIV-1 isolate: HT92599; NB-DNJ 1000 uM
  % p24 secretion Week 1: 55%
  % p24 secretion Week 2: 10%
  % p24 secretion Week 3: 3%
  % p24 secretion Week 4: 0%
  % p24 secretion Week 1-rb: 52%
  % p24 secretion Week 2-rb: 15%
  % p24 secretion Week 3-rb: 6%
  % p24 secretion Week 4-rb: 1%
HIV-1 isolate: 97USNG30; NB-DNJ 250 uM
  % p24 secretion Week 1: 96%
  % p24 secretion Week 2: 102%
  % p24 secretion Week 3: 100%
  % p24 secretion Week 4: 95%
  % p24 secretion Week 1-rb: 112%
  % p24 secretion Week 2-rb: 109%
  % p24 secretion Week 3-rb: 97%
  % p24 secretion Week 4-rb: 101%
HIV-1 isolate: 97USNG30; NB-DNJ 500 uM
  % p24 secretion Week 1: 74%
  % p24 secretion Week 2: 45%
  % p24 secretion Week 3: 8%
  % p24 secretion Week 4: 3%
  % p24 secretion Week 1-rb: 82%
  % p24 secretion Week 2-rb: 19%
  % p24 secretion Week 3-rb: 7%
  % p24 secretion Week 4-rb: 1%
HIV-1 isolate: 97USNG30; NB-DNJ 1000 uM
  % p24 secretion Week 1: 46%
  % p24 secretion Week 2: 9%
  % p24 secretion Week 3: 0%
  % p24 secretion Week 4: 0%
  % p24 secretion Week 1-rb: 53%
  % p24 secretion Week 2-rb: 3%
  % p24 secretion Week 3-rb: 0%
  % p24 secretion Week 4-rb: 0%
HIV-1 isolate: 89.6; [1]
  reduction in viral secretion: 75%
HIV-1 isolate: 89.6; [2]
  IC50: 250 µM
  IC90: 375 µM
HIV-1 isolate: 89.6; NB-DNJ 250 uM
  % p24 secretion Week 1: 98%
  % p24 secretion Week 2: 79%
  % p24 secretion Week 3: 54%
  % p24 secretion Week 4: 59%
  % p24 secretion Week 1-rb: 81%
  % p24 secretion Week 2-rb: 70%
  % p24 secretion Week 3-rb: 73%
  % p24 secretion Week 4-rb: 66%
HIV-1 isolate: 89.6; NB-DNJ 500 uM
  % p24 secretion Week 1: 36%
  % p24 secretion Week 2: 16%
  % p24 secretion Week 3: 2%
  % p24 secretion Week 4: 0%
  % p24 secretion Week 1-rb: 35%
  % p24 secretion Week 2-rb: 8%
  % p24 secretion Week 3-rb: 0%
  % p24 secretion Week 4-rb: 0%
HIV-1 isolate: 89.6; NB-DNJ 1000 uM
  % p24 secretion Week 1: 25%
  % p24 secretion Week 2: 1%
  % p24 secretion Week 3: 1%
  % p24 secretion Week 4: 0%
  % p24 secretion Week 1-rb: 21%
  % p24 secretion Week 2-rb: 0%
  % p24 secretion Week 3-rb: 0%
  % p24 secretion Week 4-rb: 0%
